According to patent US11180486B2, “Indolylkojyl methane analogues, process of preparation thereof and use as inhibitor of cancer cells invasion and metastasis” (Council of Scientific & Industrial Research, priority 2017, dated 2021):
Several values for one entry are separate records, joined by “and”; a condition that tells them apart may be missing. Identical values can stand only once. Like-named read-outs stand apart in the source and are kept apart here.

How the values were obtained:
MCF7 cells [1] = test: Cell viability (MTT) assay; assay type: cell-based; details: Homo sapiens
Experimental: (§1) Cell Culture and Reagents. The cell lines used in this study were procured from American Type Culture Collection (ATCC), Manassas, USA. MCF7, T47D and fR2 cells were cultured in RPMI-1640 medium, whereas the MDA-MB-231 cells were grown in Leibovitz's (L-15) medium supplemented with 10% fetal bovine serum (Gibco) and 1% penicillin/streptomycin (Sigma) in a humidified CO2 incubator (New Brunswick Galaxy 170 R) with 5% CO2. Reagents such as phenylmethylsulfonyl fluoride (PMSF), dithiothreitol (DTT), DMSO, crystal violet, and Bradford's reagent were purchased from Sigma-Aldrich. Protease inhibitor cocktail was procured from Roche. The antibodies for human GRP78, Par-4, MMP-2, MMP-9, NF-kB, E-cadherin and TIMP-1 were procured from Santa-Cruz Biotechnology. The β-actin antibody and the secondary antibodies such as anti-rabbit IgG and anti-mouse IgG were procured from Sigma-Aldrich.
(§2) Cell Viability Assay. The cell viability was determined by standard MTT assay method. Briefly, MDA-MB-231, MCF7, T47D and fR2 cells were seeded in 96 well tissue culture plates (Nunc) at a density of 3×10^3 cells per well and treated with varying concentrations of the test compounds in triplicates. DMSO was taken as a vehicle and the final concentration of the DMSO was maintained at 0.2% in the culture medium. Doxorubicin was employed as a positive control. After 44 h of incubation, MTT dye solution was added into the medium and cells were incubated for another 4 h at 37° C. in 5% CO2. The amount of coloured formazan derivatives formed was measured by taking optical density (OD) using a microplate reader (TECAN, Infinite M200 Pro) at 570 nm and the percentage cell viability was calculated. The IC50 values were calculated using GraphPad Prism software (Version 5.0). Table 2. Cytotoxicity (IC50) of all synthesized compounds of invention against panel of human breast cancer cell lines (MDA-MB-231, MCF7, T47D) and normal breast epithelial (fR2) cells.

MDA-MB-231 cells [2] = test: Cell viability (MTT) assay; assay type: cell-based; details: Homo sapiens
Experimental: as §1, §2

T47D cells = test: Cell viability (MTT) assay; assay type: cell-based; details: Homo sapiens, 44 h + 4 h, mean ± SD of three experiments
Experimental: as §1, §2

MCF7 cells [3] = test: Cell scattering assay (bFGF stimulated); assay type: cell-based, human; details: bFGF plus 200 nM, 48 h, vs bFGF alone
Experimental: (§3) Cell Scattering Assay. The procedure was followed according to the previously described method (Amin et al., 2015, Mol. Carcinog). Briefly, MDA-MB-231 and MCF7 cells were trypsinized, seeded in 6 well plates at a density of 1000 cells/well and incubated for 5 days for the formation of small colonies. On the sixth day, exhausted media was replaced by fresh media and cells were stimulated with bFGF (20 ng/mL) along with 5 (200 nM) or doxorubicin for 48 h. Cells were then washed with PBS and photographs were taken under inverted microscope at 20× magnification.

MDA-MB-231 cells [4] = test: Cell scattering assay (bFGF stimulated); assay type: cell-based, human; details: bFGF plus 200 nM, 48 h, vs bFGF alone
Experimental: as §3

MMP-9 = test: Immunoblotting, expression of MMP-9; assay type: cell-based, human; details: MDA-MB-231 cells; dose dependent
Experimental: Immunoblotting. MDA-MB-231 and MCF7 cells (0.5×10^6) were plated in six well plates for overnight in a humidified CO2 incubator and then exposed to varying concentrations of 5 (50, 100 and 200 nM) for 24 h along with vehicle (dose dependent study) and 200 nM of 5 for various time points like; 0, 6, 12, 24 and 48 h (time dependent study). Cells were then harvested, washed with chilled PBS and lysed with lysis buffer (HEPES 1 mM, KCl 60 mM, NP-40 0.3%, EDTA 1 mM, DTT 1 mM, sodium orthovanadate 1 mM, PMSF 0.1 mM and cocktail protease inhibitor). The cell extractions were centrifuged at 12,000 rpm for 10 min at 4° C. Protein concentration was measured by the standard Bradford method. An equal amount (20 μg) of protein from each sample was subjected to SDS-PAGE, and proteins were transferred to PVDF membranes (PALL), blocked with 5% (w/v) non-fat milk in PBS containing 0.1% Tween-20, probed with relevant antibodies (1:1000 dilution) for 3 h at room temperature or overnight at 4° C., and subsequently washed and probed with species-specific secondary antibodies coupled to horseradish peroxidase. Immunoreactive proteins were detected by Enhanced Chemiluminescence Plus (Thermo) (Rah et al., 2012, PloS one, 7(9), p.e44039.).

[5] = tested on: mouse mammary carcinoma (4T1) cells; assay type: in vivo
Experimental: In Vivo Anti-Tumor and Anti-Metastatic Efficacy Studies. To evaluate the antitumor and antimetastatic effect of 5 in vivo, healthy female Balb/c mice (b.w. 18-23 g) were taken. The experimental protocols were approved by the Institutional Animal Ethics Committee, CPCSEA, of Indian Institute of Integrative Medicine, Jammu. The animals were maintained at 22° C. with a 12 h light-dark cycle and free access to feed and water inside the institutional animal house. Proper care was taken to maintain them in a healthy condition and to avoid any risk of possible pathogenic contaminations. For subcutaneous implantation, the mice were randomized into two groups of 5 mice per group and 1.5 million mouse mammary carcinoma (4T1) cells in serum free RPMI media were injected subcutaneously into the mammary fat pad of each mouse. Either 1 week after the tumor cell implantation or when the tumor volume reached ˜150 mm^3, mice were injected intraperitoneally with either normal saline (NS) or parent compound 1 (100 mg/kg, b.w.) or 5 (30 mg/kg, b.w.) in each alternate days for two weeks. Tumor size was recorded on each alternate days post-cell injection and body weights were recorded once per week. Mice were sacrificed on the 15th day of treatment initiation and tumors were incised for its measurement. Metastatic lung nodules were counted using a dissecting microscope. Lungs were then minced into fine pieces, suspended in medium containing collagenase and kept in 37° C. incubator with vigorous shaking for 2 h. The suspension was then filtered with the help of 70 μm cell strainer (BD, USA) to get the single cell suspension. Then, the suspension was serially diluted for 3-4 times in selection medium containing 6-thioguanine, for the selection of 4T1 cells. Each dilution containing the lung cell suspension was then plated into individual petridishes and incubated at 37° C. and 5% CO2 for the growing of 4T1 cell colonies. After 15 days of incubation, cells were washed with PBS, fixed with methanol and stained with 0.2% crystal violet solution for 1 h. Images of the 4T1 colonies were observed, counted and photographed under an inverted microscope at 20× magnification.

CCCCCCCC(c1oc(CO)cc(=O)c1O)c1c[nH]c2ccccc12 (stereo not drawn) [Compound 5, 2-{1-(1H-indol-3-yl)octyl}-3-hydroxy-6-(hydroxymethyl)-4H-pyran-4-one] showed an IC50 (MCF7 cells [1]; MCF7, 44 h + 4 h, mean ± SD of three experiments, read-out: IC50 values MCF7) of 150 ± 95 nM, an IC50 (MCF7 cells [1]; MCF7, read-out: IC50 in MCF7) of 150 nM and an IC50 (MDA-MB-231 cells [2]; MDA-MB-231, 44 h + 4 h, mean ± SD of three experiments, read-out: IC50 values MDA-MB-231) of 209 ± 265 nM. The IC50 (MDA-MB-231 cells [2]; MDA-MB-231, read-out: IC50 in MDA-MB-231) was 209 nM, the IC50 (T47D cells) was 3450 nM and the IC50 (T47D cells; 48 h) was 3450 nM. For the same compound, the cell scattering inhibited (MCF7 cells [3]) was 84.5%, the cell scattering inhibited (MDA-MB-231 cells [4]) was 80% and the “expression of MMP-9” value (MMP-9) was “downregulated”. For the same compound, the “decrease in metastatic lung nodules” value ([5]; 30 mg/kg b.w. i.p., alternate days for two weeks) was 84.5%, the “inhibition in tumor growth” value ([5]; 30 mg/kg b.w. i.p., alternate days for two weeks, vs normal saline) was 79.2% and 67% and the “colony formation by 4T1 cells in lung suspension” value ([5]; 30 mg/kg b.w., compared to 1 and vehicle treated animals) was “inhibited drastically”.
